Data: PubChem BioAssay (NCI)
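Compound exposure: 48 hours, 5 concentrations, 96-well plates. GI50 is the concentration that inhibits growth by half. TGI marks complete inhibition of growth.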

Tests used:
Experiment in all cases: NCI-60 cell line screen, 48 h
NCI-H460 lung = system: NCI-H460 lung
T-47D breast = system: T-47D breast
NCI/ADR-RES ovarian = system: NCI/ADR-RES ovarian
HOP-62 NSCLC = system: HOP-62 NSCLC
KM12 colon = system: KM12 colon
LOX IMVI melanoma = system: LOX IMVI melanoma
OVCAR-4 ovarian = system: OVCAR-4 ovarian
HCT-15 colon = system: HCT-15 colon
PC-3 prostate = system: PC-3 prostate
A498 renal = system: A498 renal
BT-549 breast = system: BT-549 breast
DU-145 prostate = system: DU-145 prostate
K-562 leukemia = system: K-562 leukemia
MDA-MB-468 breast = system: MDA-MB-468 breast
SN12C renal = system: SN12C renal
MALME-3M melanoma = system: MALME-3M melanoma
MOLT-4 leukemia = system: MOLT-4 leukemia
SK-MEL-2 melanoma = system: SK-MEL-2 melanoma
MDA-MB-231 breast = system: MDA-MB-231 breast
HOP-92 NSCLC = system: HOP-92 NSCLC
HT29 colon = system: HT29 colon
RXF 393 renal = system: RXF 393 renal
MDA-MB-435 = system: MDA-MB-435
SF-268 CNS = system: SF-268 CNS
SNB-19 CNS = system: SNB-19 CNS
OVCAR-8 ovarian = system: OVCAR-8 ovarian
SK-MEL-28 melanoma = system: SK-MEL-28 melanoma

Q: COc1ccc(C(=O)/C=C/c2cc3c(cc2Br)OCO3)cc1S(N)(=O)=O was tested. Which GI50 (NCI-H460 lung) did it give?
A: Its GI50 is 3.95 µM.

Q: And the TGI (NCI-H460 lung)?
A: Its TGI is over 100 µM.

Q: And the GI50 (T-47D breast)?
A: The GI50 was 5.99 µM.

Q: And the TGI (T-47D breast)?
A: Its TGI is 33 µM.

Q: And the GI50 (NCI/ADR-RES ovarian)?
A: Its GI50 is 2.3 µM.

Q: What about the TGI (NCI/ADR-RES ovarian) of the same compound?
A: The TGI was 6 µM.

Q: What about the GI50 (HOP-62 NSCLC) of the same compound?
A: Its GI50 is 2.62 µM.

Q: What about the TGI (HOP-62 NSCLC) of the same compound?
A: The TGI was over 100 µM.

Q: What about the GI50 (KM12 colon) of the same compound?
A: Its GI50 is 2.45 µM.

Q: What about the TGI (KM12 colon) of the same compound?
A: The TGI was 6 µM.

Q: And the GI50 (LOX IMVI melanoma)?
A: Its GI50 is 1.68 µM.

Q: What about the TGI (LOX IMVI melanoma) of the same compound?
A: Its TGI is 3.16 µM.

Q: And the GI50 (OVCAR-4 ovarian)?
A: Its GI50 is 3.72 µM.

Q: And the TGI (OVCAR-4 ovarian)?
A: The TGI was 32.3 µM.

Q: And the GI50 (HCT-15 colon)?
A: Its GI50 is 1.78 µM.

Q: What about the TGI (HCT-15 colon) of the same compound?
A: Its TGI is 3.79 µM.

Q: And the GI50 (PC-3 prostate)?
A: Its GI50 is 6.7 µM.

Q: And the TGI (PC-3 prostate)?
A: Its TGI is 28.9 µM.

Q: What about the GI50 (A498 renal) of the same compound?
A: The GI50 was 15.2 µM.

Q: What about the TGI (A498 renal) of the same compound?
A: The TGI was 28.8 µM.

Q: What about the GI50 (BT-549 breast) of the same compound?
A: The GI50 was 5.99 µM.

Q: And the TGI (BT-549 breast)?
A: The TGI was 49 µM.

Q: What about the GI50 (DU-145 prostate) of the same compound?
A: The GI50 was 3.71 µM.

Q: What about the TGI (DU-145 prostate) of the same compound?
A: The TGI was 12.7 µM.

Q: What about the GI50 (K-562 leukemia) of the same compound?
A: Its GI50 is 0.445 µM.

Q: What about the TGI (K-562 leukemia) of the same compound?
A: The TGI was 11.8 µM.

Q: What about the GI50 (MDA-MB-468 breast) of the same compound?
A: Its GI50 is 4.98 µM.

Q: And the TGI (MDA-MB-468 breast)?
A: The TGI was 24.8 µM.

Q: And the GI50 (SN12C renal)?
A: Its GI50 is 2.05 µM.

Q: And the TGI (SN12C renal)?
A: The TGI was 5.32 µM.

Q: And the GI50 (MALME-3M melanoma)?
A: The GI50 was 11.6 µM.

Q: What about the TGI (MALME-3M melanoma) of the same compound?
A: Its TGI is 27 µM.

Q: And the GI50 (MOLT-4 leukemia)?
A: The GI50 was 2.3 µM.

Q: And the TGI (MOLT-4 leukemia)?
A: Its TGI is 7.68 µM.

Q: And the GI50 (SK-MEL-2 melanoma)?
A: Its GI50 is 14.7 µM.

Q: What about the TGI (SK-MEL-2 melanoma) of the same compound?
A: The TGI was 30.2 µM.

Q: What about the GI50 (MDA-MB-231 breast) of the same compound?
A: Its GI50 is 2.87 µM.

Q: And the TGI (MDA-MB-231 breast)?
A: The TGI was 8.68 µM.

Q: And the GI50 (HOP-92 NSCLC)?
A: The GI50 was 5.46 µM.

Q: And the TGI (HOP-92 NSCLC)?
A: Its TGI is 23.5 µM.

Q: And the GI50 (HT29 colon)?
A: The GI50 was 1.88 µM.

Q: What about the TGI (HT29 colon) of the same compound?
A: Its TGI is 3.66 µM.

Q: What about the GI50 (RXF 393 renal) of the same compound?
A: The GI50 was 2.77 µM.

Q: And the TGI (RXF 393 renal)?
A: The TGI was 17.5 µM.

Q: And the GI50 (MDA-MB-435)?
A: The GI50 was 13.6 µM.

Q: And the TGI (MDA-MB-435)?
A: Its TGI is 37.5 µM.

Q: What about the GI50 (SF-268 CNS) of the same compound?
A: Its GI50 is 5.33 µM.

Q: What about the TGI (SF-268 CNS) of the same compound?
A: The TGI was 29.9 µM.

Q: What about the GI50 (SNB-19 CNS) of the same compound?
A: Its GI50 is 5.77 µM.

Q: What about the TGI (SNB-19 CNS) of the same compound?
A: Its TGI is 29.7 µM.

Q: And the GI50 (OVCAR-8 ovarian)?
A: Its GI50 is 2.91 µM.

Q: And the TGI (OVCAR-8 ovarian)?
A: The TGI was over 100 µM.

Q: And the GI50 (SK-MEL-28 melanoma)?
A: The GI50 was 14.3 µM.

Q: What about the TGI (SK-MEL-28 melanoma) of the same compound?
A: The TGI was 30.2 µM.
